Test results from patent publication EP1106702A1, “High-throughput screening of compounds using electrospray ionization mass spectrometry (ESI-MS)” (AGOURON PHARMACEUTICALS, INC., priority 1999, dated 2001).

How the values were obtained:
[1] = tested on: 6:7 duplex; test: ESI-MS monitoring of non-covalent small molecule:oligonucleotide complexes with DNA duplex; type: binding; settings: for ammonium acetate concentration tolerated with binding/complex stable: ammonium acetate varied from 10 mM to 250 mM; for relative binding affinity to 6:7 duplex: 10 mM ammonium acetate
Description: Regarding buffer concentration, the concentrations of ammonium acetate were varied to determine the effects of ionic strength on ligand binding. […] Of the intercalators, proflavin tolerated over 100 mM ammonium acetate with minimal shifting in binding. However, ethidium bromide and methyl green had almost 70% reduction in binding to DNA at only 33 mM ammonium acetate. The reduction in binding of ethidium bromide and methyl green at high salt concentrations is evidence of the electrostatic nature of the first step in binding in the intercalation of these compounds. Proflavin, which is […] at the test pH, should be less affected by an increase in competing counterions.
The general protocol for preparing the samples utilized in the present invention is as follows. Complementary single-stranded oligonucleotides are desalted, preferably via ammonium acetate precipitation. This DNA desalting procedure involves the following steps. First, the oligonucleotide is dissolved in approximately 100 µL of water. Next, about 500 µL of 10 M ammonium acetate is added. The solution is mixed and allowed to rest for about 5 minutes. From about 600 to about […] of cold ethanol (EtOH) is added and the solution is set in dry ice for about 25 minutes. The solution is then centrifuged for about 20 minutes. The supernatant is removed and saved and the preceding steps are repeated once. Subsequently, 1 ml of a 90:10 solution of EtOH and water are added and the solution is centrifuged for 5 minutes. This step is then repeated twice. The solution is then dried and rehydrated. Finally, OD readings are taken at 260 nanometers to ensure a 1:500 dilution.
(§1) The complementary oligonucleotide strands and corresponding oligonucleotide duplex are not critical to the invention. The duplex may comprise a DNA:DNA duplex, an RNA:RNA duplex or a DNA:RNA duplex. The DNA strands utilized herein are described in detail below. Once desalted, the complementary oligonucleotide strands are added in equimolar mixture in 50 mM ammonium acetate to make a […] duplex stock solution. The duplex stock solution is placed in a 60° C water bath for 10 minutes and then slowly cooled to room temperature. Test solutions are made by adding test compound (dissolved in methanol (MeOH)) to stock solution in a 2:1 water:isopropyl alcohol. Final concentrations of test compound and duplex are preferably 10 µM each. For example, 20 µL of the stock duplex solution is added to 80 µL of a 2:1 solution of water and IPA for a final volume of 100 µL and a final concentration of 10 µM duplex. The test compound is then added to the solution for a final concentration of 10 µM as well. One may subsequently dilute the test solution to test a range of test compound concentrations, from as low as 0.3 µM up to 10 µM.
Once the appropriate samples and solutions are prepared, one may proceed with the ESI-MS procedure. The general protocol for manual analysis is as follows. First, a 50 µL sample of test solution (comprised of about 30 picomoles of test compound) is drawn into a 100 µL syringe and infused into an LCQ Decca ion trap mass spectrometer using ESI-MS source. The sample is directly infused at a rate of about 1.5 µL/min over a period of approximately 2 minutes. The spectra is then analyzed for the presence of bound test ligand. If the test ligand does bind, the sample is re-run at lower concentrations, from about 0.3 µM up to 1.0 µM. In order to ensure statistical accuracy, data are preferably summed, saved, and analyzed over a large numbers of scans, preferably 30 to 50 scans, more preferably 40 scans.
The oligonucleotides utilized in the examples herein were known to interact with a particular target(s) of interest. They were provided according to our specifications from TriLink (La Jolla, CA). […] When the duplex solution was analyzed by ESI-MS, it was possible to see at least three charge stages of the duplex as well as some charge states of the two single strands. […]

[2] = tested on: ss DNA; test: ESI-MS monitoring of ligand binding to the single strands in the duplex mixture; settings: 10 µM duplex 6:7 mixture, increasing ligand concentration
Description: as §1, with “For example, 20 µL of the stock duplex solution is added to 80 µL of a 2:1 solution of water and IPA for a final volume of 100 µL and a final concentration of 10 µM duplex. The test compound is then added to the solution for a final concentration of 10 µM as well. One may subsequently dilute the test solution to test a range of test compound concentrations, from as low as 0.3 µM up to 10 µM.” left out
Once the appropriate samples and solutions are prepared, one may proceed with the ESI-MS procedure. […] The spectra is then analyzed for the presence of bound test ligand. […] In order to ensure statistical accuracy, data are preferably summed, saved, and analyzed over a large numbers of scans, preferably 30 to 50 scans, more preferably 40 scans.
The oligonucleotides utilized in the examples herein were known to interact with a particular target(s) of interest. […] When the duplex solution was analyzed by ESI-MS, it was possible to see at least three charge stages of the duplex as well as some charge states of the two single strands. […]

[3] = target: E.coli DNA helicase II (Escherichia coli, UniProt P03018); settings: intercalation into double-stranded DNA substrate; cited from earlier work
Chain of E.coli DNA helicase II (P03018 whole entry): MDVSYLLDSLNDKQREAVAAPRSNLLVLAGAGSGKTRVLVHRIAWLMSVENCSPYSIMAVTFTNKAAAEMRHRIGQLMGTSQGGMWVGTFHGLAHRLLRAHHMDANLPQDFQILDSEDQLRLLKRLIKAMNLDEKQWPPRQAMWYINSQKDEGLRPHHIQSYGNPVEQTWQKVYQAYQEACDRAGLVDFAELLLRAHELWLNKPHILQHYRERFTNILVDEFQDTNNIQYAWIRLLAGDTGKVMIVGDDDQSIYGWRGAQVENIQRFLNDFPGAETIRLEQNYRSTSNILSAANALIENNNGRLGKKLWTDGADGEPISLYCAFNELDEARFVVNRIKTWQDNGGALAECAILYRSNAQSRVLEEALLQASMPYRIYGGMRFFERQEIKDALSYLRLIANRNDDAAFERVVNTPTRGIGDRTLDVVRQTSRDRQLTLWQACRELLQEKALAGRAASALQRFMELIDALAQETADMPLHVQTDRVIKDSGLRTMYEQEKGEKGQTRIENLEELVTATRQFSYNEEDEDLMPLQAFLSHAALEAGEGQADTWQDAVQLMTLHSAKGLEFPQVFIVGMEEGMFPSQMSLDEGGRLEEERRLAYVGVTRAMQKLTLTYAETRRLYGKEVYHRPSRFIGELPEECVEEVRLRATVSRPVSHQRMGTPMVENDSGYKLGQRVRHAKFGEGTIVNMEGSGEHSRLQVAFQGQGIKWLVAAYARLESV

[4] = tested on: 6:7 duplex; test: ESI-MS monitoring of non-covalent small molecule:oligonucleotide complexes with DNA duplex; type: binding; settings: 10 µM duplex and 10 µM proflavin; FT-ICR mass spectrometer
[5] = 33 mM ammonium acetate, 10 µM 6:7 duplex and 10 µM sample
[6] = 10 µM 6:7 duplex and 10 µM sample

CN1CCN(c2ccc3[nH]c(-c4ccc5[nH]c(-c6ccc(O)cc6)nc5c4)nc3c2)CC1 [H33258, bis-benzamide]
relative amounts of the 1:1 H33258:DNA complex compared with the 2:1 H33258:DNA complex ([1]; 33 mM ammonium acetate): shifted | change in binding (in words) [1, 5]: appreciable reduction in binding | binding to single strand [2]: ligand bound to ss DNA was observed in increasing quantities

Cn1cc(NC(=O)c2cc(NC(=O)c3cc(NC=O)cn3C)cn2C)cc1C(=O)NCCC(=N)N [distamycin A]
ammonium acetate concentration tolerated with binding/complex stable [1, 6]: up to 100 mM | observation of ligand:DNA complex ([1]; 500 mM ammonium acetate in solution): still observed (though at much reduced levels)

CN(C)c1ccc(C(=C2C=CC(=[N+](C)C)C=C2)c2ccc([N+](C)(C)C)cc2)cc1.[Cl-].[Cl-] [methyl green]
relative binding affinity to 6:7 duplex [1]: methyl green > ethidium bromide > proflavin | reduction in binding to DNA [1, 5]: ~70%

O=C1c2c(O)ccc(O)c2C(=O)c2c(NCCNCCO)ccc(NCCNCCO)c21 [mitoxantrone]
effect on helicase II ATP hydrolysis and unwinding activity [3]: inhibition of ATP hydrolysis and unwinding activity

Nc1ccc2cc3ccc(N)cc3nc2c1 [proflavin]
ammonium acetate concentration tolerated with binding/complex stable [1, 6]: over 100 mM | relative binding affinity to 6:7 duplex [1]: methyl green > ethidium bromide > proflavin | binding between intercalator and duplex [4]: binding between intercalator and duplex was observed
